PubChem BioAssay AID1259411 (Chemical Carcinogenesis Research Information System (CCRIS), 2018)
Calls of active or inactive are those of the source. How the calls were made is not given here.

System: rodent carcinogenicity bioassays, tumor incidence
Experiment: CCRIS carcinogenicity studies
Summary of the method: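 NCI-built, expert-reviewed records of carcinogenicity and related test outcomes (mutagenicity, tumor promotion/inhibition) compiled from published and report sources, historical span 1985-2011, not updated.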

Structure (SMILES): ClCCCl
- carcinogen call (Species: MOUSE, Strain/Sex: B6C3F1/FEMALE, Route: GAVAGE, Dose: 0, 149, 299 MG/KG TWA,5 D/WK FOR 78 WK (STUDY DURATION: 91 WK), Dose: 0, 149, 299 MG/KG TWA,5 D/WK FOR 78 WK (STUDY DURATION: 91 WK), Tumor Site: Type of Lesion: LUNG: ALVEOLAR/BRONCHIOLAR ADENOMA, UTERUS (ENDOMETRIUM): STROMAL POLYP, STROMAL SARCOMA, MAMMARY GLAND: ADENOCARCINOMA, Tumor Site: Type of Lesion: LUNG: ALVEOLAR/BRONCHIOLAR ADENOMA, UTERUS (ENDOMETRIUM): STROMAL POLYP, STROMAL SARCOMA, MAMMARY GLAND: ADENOCARCINOMA): active; positive
- carcinogen call (Species: MOUSE, Strain/Sex: B6C3F1/MALE, Route: GAVAGE, Dose: 0, 97, 195 MG/KG TWA, 5 D/WK FOR 78 WK (STUDY DURATION: 90-91 WK), Dose: 0, 97, 195 MG/KG TWA, 5 D/WK FOR 78 WK (STUDY DURATION: 90-91 WK), Tumor Site: Type of Lesion: LUNG: ALVEOLAR/BRONCHIOLAR ADENOMA): active; positive
- carcinogen call (Species: MOUSE, Strain/Sex: EU-PIM-1/FEMALE, Route: GAVAGE, Dose: 0, 100, 300 MG/KG 1/D FOR 40 WK (STUDY DURATION: 40 WK), Dose: 0, 100, 300 MG/KG 1/D FOR 40 WK (STUDY DURATION: 40 WK), Tumor Site: Type of Lesion: LYMPHATIC SYSTEM: LYMPHOMA): active; positive
- carcinogen call (Species: MOUSE, Strain/Sex: EU-PIM-1/MALE, Route: GAVAGE, Dose: 0, 100, 300 MG/KG 1/D FOR 40 WK (STUDY DURATION: 40 WK), Dose: 0, 100, 300 MG/KG 1/D FOR 40 WK (STUDY DURATION: 40 WK)): inactive; negative
- carcinogen call (Species: MOUSE, Strain/Sex: ICR/FEMALE, Route: DERMAL, Dose: 42, 126 MG/APPL/MOUSE IN 0.2 ML ACETONE 3/WK, Tumor Site: Type of Lesion: LUNG: BENIGN PAPILLOMA): active; positive
- carcinogen call (Species: RAT, Strain/Sex: OSBORNE-MENDEL/FEMALE, Route: GAVAGE, Dose: 0, 47, 95 MG/KG TWA, 5 D/WK FOR 69 WK (STUDY DURATION: 93-110 WK), Dose: 0, 47, 95 MG/KG TWA, 5 D/WK FOR 69 WK (STUDY DURATION: 93-110 WK), Tumor Site: Type of Lesion: MAMMARY GLAND: ADENOCARCINOMA OR FIBROADENOMA): active; positive
- carcinogen call (Species: RAT, Strain/Sex: OSBORNE-MENDEL/MALE, Route: GAVAGE, Dose: 0, 47, 95 MG/KG TWA, 5 D/WK FOR 69 WK (STUDY DURATION: 101-110 WK), Dose: 0, 47, 95 MG/KG TWA, 5 D/WK FOR 69 WK (STUDY DURATION: 101-110 WK), Tumor Site: Type of Lesion: INTEGUMENTARY SYSTEM (SUBCUTANEOUS TISSUE): FIBROMA, FORESTOMACH: SQUAMOUS CELL CARCINOMA, BLOOD VESSELS: HEMANGIOSARCOM, Tumor Site: Type of Lesion: INTEGUMENTARY SYSTEM (SUBCUTANEOUS TISSUE): FIBROMA, FORESTOMACH: SQUAMOUS CELL CARCINOMA, BLOOD VESSELS: HEMANGIOSARCOM): active; positive
- carcinogen call (Species: RAT, Strain/Sex: SPRAGUE-DAWLEY/FEMALE, Route: INHALATION, Dose: 0, 5, 10, 50, 150, 250 PPM IN AIR 7 HR/D 5 D/WK FOR 78 WK (STUDY DURATION: LIFETIME), Dose: 0, 5, 10, 50, 150, 250 PPM IN AIR 7 HR/D 5 D/WK FOR 78 WK (STUDY DURATION: LIFETIME), Tumor Site: Type of Lesion: [BRAIN WAS ONLY SITE EVALUATED]): inactive; negative
- carcinogen call (Species: RAT, Strain/Sex: SPRAGUE-DAWLEY/FEMALE, Route: INHALATION, Dose: 0, 50 PPM 7 HR/D 5 D/WK FOR 2 YR (STUDY DURATION: 2 YR)): inactive; negative
- carcinogen call (Species: RAT, Strain/Sex: SPRAGUE-DAWLEY/MALE, Route: INHALATION, Dose: 0, 5, 10, 50, 150, 250 PPM IN AIR 7 HR/D 5 D/WK FOR 78 WK (STUDY DURATION: LIFETIME), Dose: 0, 5, 10, 50, 150, 250 PPM IN AIR 7 HR/D 5 D/WK FOR 78 WK (STUDY DURATION: LIFETIME), Tumor Site: Type of Lesion: [BRAIN WAS ONLY SITE EVALUATED]): inactive; negative
- carcinogen call (Species: RAT, Strain/Sex: SPRAGUE-DAWLEY/MALE, Route: INHALATION, Dose: 0, 50 PPM 7 HR/D 5 D/WK FOR 2 YR (STUDY DURATION: 2 YR)): inactive; negative

Structure (SMILES): ON=C1CCCC1
- carcinogen call (Species: RAT, Strain/Sex: F344/MALE, Route: GAVAGE, Dose: 0, 2 MMOL/KG BW 1/WK FOR 50 WK (STUDY DURATION: 83 WK)): inactive; negative

Structure (SMILES): CCCOC(N)=O
- carcinogen call (Species: MOUSE, Route: INTRAPERITONEAL, Tumor Site: Type of Lesion: LUNG): active; positive

Structure (SMILES): CCN(CC)c1ccc2c(-c3ccc(S(=O)(=O)O)cc3S(=O)(=O)[O-])c3ccc(=[N+](CC)CC)cc-3oc2c1
- carcinogen call (Species: RAT, Strain/Sex: F344/FEMALE, Route: ORAL, Dose: 0, 2.5, 5% IN DIET FOR 106 WK (STUDY DURATION: 106 WK), Dose: 0, 2.5, 5% IN DIET FOR 106 WK (STUDY DURATION: 106 WK)): inactive; negative
- carcinogen call (Species: RAT, Strain/Sex: F344/MALE, Route: ORAL, Dose: 0, 2.5, 5% IN DIET FOR 106 WK (STUDY DURATION: 106 WK), Dose: 0, 2.5, 5% IN DIET FOR 106 WK (STUDY DURATION: 106 WK)): inactive; negative

Structure (SMILES): N#Cc1cc(Br)c(O)c(Br)c1
- carcinogen call (Species: Mouse, Strain/Sex: Crl:CD-1 (ICR)BR VAF/Plus/Female (60/sex/group), Route: Oral, Dose: 0, 20, 75, 300 ppm in feed for 78-80 wk, Dose: 0, 20, 75, 300 ppm in feed for 78-80 wk, Tumor Site: Type of Lesion: Liver: Hepatocellular adenoma and carcinoma combined (0 ppm, 2/60; 300 ppm, 7/59)): active; positive at high dose only; purity 94.4%
- carcinogen call (Species: Mouse, Strain/Sex: Crl:CD-1 (ICR)BR VAF/Plus/Male (60/sex/group), Route: Oral, Dose: 0, 20, 75, 300 ppm in feed for 78-80 wk, Dose: 0, 20, 75, 300 ppm in feed for 78-80 wk, Tumor Site: Type of Lesion: Liver: Hepatocellular adenoma and carcinoma combined (5/60; 16/60; 12/60; 23/60)): active; positive; purity 94.4%
